Source: paper PMC1315280, “The Flavoring Agent Dihydrocoumarin Reverses Epigenetic Silencing and Inhibits Sirtuin Deacetylases” (PLoS Genetics, 2005)
pIC50: −log10 of the molar value.

Biological target: T1, SIRT1 (Homo sapiens, UniProt Q96EB6)
T1 construct: recombinant SIRT1
T1 sequence (Q96EB6 2-747): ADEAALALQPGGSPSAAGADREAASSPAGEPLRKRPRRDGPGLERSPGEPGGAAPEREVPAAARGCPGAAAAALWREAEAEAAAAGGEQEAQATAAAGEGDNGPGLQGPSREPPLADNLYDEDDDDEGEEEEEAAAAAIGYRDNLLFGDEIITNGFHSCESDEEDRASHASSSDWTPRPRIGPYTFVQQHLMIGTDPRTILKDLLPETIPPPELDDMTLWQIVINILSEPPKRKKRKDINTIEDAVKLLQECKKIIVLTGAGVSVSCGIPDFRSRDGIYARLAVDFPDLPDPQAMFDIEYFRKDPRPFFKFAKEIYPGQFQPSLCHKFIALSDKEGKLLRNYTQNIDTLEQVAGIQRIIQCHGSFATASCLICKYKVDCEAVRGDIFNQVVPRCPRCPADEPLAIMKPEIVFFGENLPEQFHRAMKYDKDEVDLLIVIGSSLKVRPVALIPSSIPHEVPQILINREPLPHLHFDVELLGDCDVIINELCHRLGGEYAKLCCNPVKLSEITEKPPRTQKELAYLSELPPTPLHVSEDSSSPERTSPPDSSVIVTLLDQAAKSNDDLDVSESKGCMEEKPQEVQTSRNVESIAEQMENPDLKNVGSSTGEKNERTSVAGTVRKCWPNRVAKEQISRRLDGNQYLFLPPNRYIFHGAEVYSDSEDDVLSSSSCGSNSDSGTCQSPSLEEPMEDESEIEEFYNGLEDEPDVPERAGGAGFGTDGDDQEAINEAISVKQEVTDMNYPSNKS
Test: in vitro deacetylase assay with recombinant enzyme and [3H] acetylated histone H4 peptide
Format: biochemical

pIC50: 3.68
Compound: O=C1CCc2ccccc2O1 [DHC, dihydrocoumarin]
